Measured values: patent US20120028976A1, “PHARMACOKINETICALLY-BASED DOSING REGIMENTS OF A THROMBIN RECEPTOR ANTAGONIST” (priority 2008, published 2012)
Like-named read-outs stand apart in the source and are kept apart here.

Legend:
clinical = details: human, in vivo
From the text: (§1) Phase I clinical studies were designed to evaluate the pharmacokinetics of COMPOUND 1 in healthy subjects after rising single and multiple doses. The study included a randomized, evaluator-blind, placebo-controlled, rising single dose (“RSD”) study and a rising multiple dose (“RSM”) study of orally administered COMPOUND 1 in healthy subjects.
(§2) In the single-dose study, 50 healthy males were enrolled into 6 sequential cohorts and randomized to receive in ascending dose manner placebo (n=2-3/group) or oral COMPOUND 1 (0.25, 1, 5, 10, 20 and 40 mg; n=5-6/group). In the multiple-dose study, 36 healthy subjects were enrolled into 3 sequential cohorts and randomized to receive in ascending-dose manner placebo (n=4/group) or oral COMPOUND 1(1, 3, and 5 mg OD in the morning for 28 days, n=8/group). A fourth cohort in the same study (n=12) was randomized to receive a single loading dose of COMPOUND 1, 10 mg (n=6) or 20 mg (n=6) on Day 1, followed by maintenance doses of 1 mg daily for 6 days. Measured and derived pharmacokinetic parameters were used to assess the pharmacokinetic profile. The doses were administered using appropriate combinations of the capsule formulations disclosed in Table 1.
Variability was low to moderate.
The RMD study also allowed evaluation of COMPOUND 1 accumulation. Mean accumulation index (R) values ranged from 4.72 to 6.37. The effective half-lives determined from R values ranged from 59.8 to 141 hrs.

[1] = Rising single dose (RSD) study: pharmacokinetics of orally administered COMPOUND 1 in healthy subjects; type: in vivo, human; details: for Cmax / AUC(0-t) / Tmax: po; for time for which plasma concentrations were quantifiable: LLOQ 0.1 ng/ml
From the text: as §1, §2
Several observations were made from the data collected in the RSD Study. […] Tmax ranged from 0.5 to 2 hrs after dosing.
To estimate the terminal-phase half-life (t½) of COMPOUND 1, samples were collected from subjects in the 20 mg and 40 mg dose groups for up to 64 days after dosing. […] Plasma concentrations were quantifiable for up to 53 days in subjects administered 20 mg and up to 62 days in subjects administered 40 mg.

[2] = single oral dose 40 mg, maximum individual value
[3] = single oral dose 40 mg, minimum individual value

SMILES: CCOC(=O)N[C@@H]1CC[C@@H]2[C@@H](C1)C[C@H]1C(=O)O[C@H](C)[C@H]1[C@H]2/C=C/c1ccc(-c2cccc(F)c2)cn1 [COMPOUND 1]
- coefficient of variability (CV) for AUC(0-24 h) (clinical): 14-34%
- dose relation of exposure (clinical): increased in a dose-related manner
- AUC(0-24 hr) Mean (clinical; 1 mg): 58.5 ng·h/mL
- Cmax Mean (clinical; 1 mg): 9.78 ng/mL
- AUC(0-24 hr) Mean (clinical; 3 mg): 225 ng·h/mL
- Cmax (clinical; 3 mg, Cmax Mean): 38.2 ng/mL
- Tmax (clinical; 3 mg, Tmax Median): 1 h
- AUC(0-24 hr) Mean (clinical; 5 mg): 315 ng·h/mL
- Cmax Mean (clinical; 5 mg): 56.4 ng/mL
- effective half-lives determined from R values (clinical; 5 mg): 60 to 141 h
- Tmax (clinical; 5 mg, Tmax Median): 1 h
- half-life (clinical; 5 mg, effective half-lives determined from R values): 59.8 to 141 h
- Mean accumulation index (R) values, range over dose groups (clinical; 28 days): 4.72-6.37
- half-life (clinical; Mean terminal-phase half-life (t1/2), range over dose groups): 173 to 269 h
- Tmax (clinical; Median Tmax values, range over dose groups): 1 to 1.5 h
- Tmax (clinical; Tmax Median): 1 h
- time to maximal plasma levels ([1]; across all doses in both studies (single and multiple oral dosing)): 60 to 90 min
- half-life ([1]; male, human, plasma, oral, subjects of the 20 mg and 40 mg single dose groups, samples up to 64 days after dosing, read-out: apparent terminal-phase half-life (t1/2)): 126 to 269 h
- Cmax ([1]; male, human, plasma, 0.25 mg, single oral dose 0.25 mg, n=6, healthy males, plasma, mean (CV %), read-out: Cmax): 2.23 ng/mL
- AUC(0-t) ([1]; male, human, plasma, 0.25 mg, single oral dose 0.25 mg, n=6, mean (CV %), read-out: AUC(0-72 hr)): 33.7 ng·h/mL
- Tmax ([1]; male, human, plasma, 0.25 mg, single oral dose 0.25 mg, n=6, value (range), read-out: Tmax): 1 h
- AUC(0-t) ([1]; male, human, plasma, 1 mg, single oral dose 1 mg, n=6, mean (CV %), read-out: AUC(0-72 hr)): 142 ng·h/mL
- Cmax ([1]; male, human, plasma, 1 mg, single oral dose 1 mg, n=6, mean (CV %), read-out: Cmax): 9.29 ng/mL
- Tmax ([1]; male, human, plasma, 1 mg, single oral dose 1 mg, n=6, value (range), read-out: Tmax): 1.25 h
- AUC(0-t) ([1]; male, human, plasma, 5 mg, single oral dose 5 mg, n=6, mean (CV %), read-out: AUC(0-72 hr)): 740 ng·h/mL
- Cmax ([1]; male, human, plasma, 5 mg, single oral dose 5 mg, n=6, mean (CV %), read-out: Cmax): 51.4 ng/mL
- Tmax ([1]; male, human, plasma, 5 mg, single oral dose 5 mg, n=6, value (range), read-out: Tmax): 0.75 h
- AUC(0-t) ([1]; male, human, plasma, 10 mg, single oral dose 10 mg, n=6, mean (CV %), read-out: AUC(0-72 hr)): 1510 ng·h/mL
- Cmax ([1]; male, human, plasma, 10 mg, single oral dose 10 mg, n=6, mean (CV %), read-out: Cmax): 99.2 ng/mL
- Tmax ([1]; male, human, plasma, 10 mg, single oral dose 10 mg, n=6, value (range), read-out: Tmax): 1.5 h
- AUC(0-t) ([1]; male, human, plasma, 20 mg, single oral dose 20 mg, n=5, mean (CV %), read-out: AUC(0-72 hr)): 3350 ng·h/mL
- Cmax ([1]; male, human, plasma, 20 mg, single oral dose 20 mg, n=5, mean (CV %), read-out: Cmax): 183 ng/mL
- Tmax ([1]; male, human, plasma, 20 mg, single oral dose 20 mg, n=5, value (range), read-out: Tmax): 1.5 h
- Tmax ([1]; male, human, plasma, 40 mg, loading dose 40 mg, single oral (Table 3), read-out: Tmax range): 0.5 to 1.5 h
- AUC(0-t) ([1]; male, human, plasma, 40 mg, loading dose 40 mg, single oral, range of individual values (Table 3), read-out: AUC(0-72 hr) range): 4740 to 7510 ng·h/mL
- Cmax ([1]; male, human, plasma, 40 mg, loading dose 40 mg, single oral, range of individual values (Table 3), read-out: Cmax range): 238 to 511 ng/mL
- AUC(0-t) ([1]; male, human, plasma, 40 mg, single oral dose 40 mg, n=5, mean (CV %), read-out: AUC(0-72 hr), Mean): ~6030 ng·h/mL
- Cmax ([1]; male, human, plasma, 40 mg, single oral dose 40 mg, n=5, mean (CV %), read-out: Cmax, Mean): ~376 ng/mL
- Tmax ([1]; male, human, plasma, 40 mg, single oral dose 40 mg, n=5, value (range), read-out: Tmax, Mean): 1.5 h
- Tmax ([1]; male, human, plasma, 40 mg, single oral dose 40 mg, Tmax corresponding to maximum individual Cmax, read-out: Tmax, Max): 1.5 h
- Tmax ([1]; male, human, plasma, 40 mg, single oral dose 40 mg, Tmax corresponding to minimum individual Cmax, read-out: Tmax): 0.5 h
- Tmax ([1]; male, human, plasma, single oral doses 0.25 to 40 mg, all dose groups, read-out: Tmax range after dosing): 0.5 to 2 h
- dose relation of exposure ([1]; single doses up to 40 mg, FIG. 2): dose related
- time for which plasma concentrations were quantifiable ([1]; single oral dose 20 mg): up to 53 days
- time for which plasma concentrations were quantifiable ([1]; single oral dose 40 mg): up to 62 days
- AUC(0-72 hr), Max [1, 2]: 7508 ng·h/mL
- Cmax, Max [1, 2]: 511 ng/mL
- AUC(0-72 hr), Min [1, 3]: 4745 ng·h/mL
- Cmax, Min [1, 3]: 238 ng/mL
